The values below come from ChEMBL document CHEMBL1201862, “PubChem BioAssay data set” (2004).

SMILES strings stand for the structures.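 Compound exposure: 48 hours, 5 concentrations, 96-well plates. Abbreviation: GI50, concentration required for 50% inhibition of growth.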 The source made the active and inactive calls. No stated cut-off is given here; in the data, active = GI50 up to about 1.1 µM and inactive = higher.

Among the test systems are MDA-MB-231; SF-295; A549; NCI/ADR-RES; COLO 205; MCF7; HL-60; M14; A498; HCT-15; MDA-N; Malme-3M; RPMI-8226; UO-31; CAKI-1; KM12; SK-MEL-5; HCC 2998; IGROV-1; Hs-578T.
What all share (test): NCI tumour cell line growth inhibition, 48 h

Take `C=C1[C@H]2O[C@H]2[C@@H](OC(C)=O)[C@@]2(C)[C@@H](OC(C)=O)C[C@@H](OC(=O)CCC)[C@@](C)(O)[C@@H]2[C@@H](OC(C)=O)[C@]2(O)[C@@H](C)C(=O)O[C@H]2[C@H]1Cl`: the GI50 in the assay with MDA-MB-231, in the assay with SF-295, in the assay with A549, in the assay on NCI/ADR-RES, in the assay with COLO 205 and with MCF7 was > 100 µM (inactive) in each case. For the same compound, the GI50 was > 100 µM (inactive) with HL-60; > 100 µM (inactive) in the assay with M14; > 100 µM (inactive) in the assay on A498; above 100 µM in the assay on HCT-15; > 100 µM (inactive) in the assay on MDA-N; > 100 µM (inactive) in the assay with Malme-3M. Moreover, the GI50 in the assay with RPMI-8226, in the assay on UO-31, with CAKI-1, with KM12, in the assay on SK-MEL-5 and with HCC 2998 was > 100 µM (inactive) in each case.
`O=C(O)CCc1ccc2c(c1)C(=O)CC2`: the GI50 was 80.5 µM (inactive) in the assay on MDA-MB-231; > 100 µM (inactive) in the assay on SF-295; > 100 µM (inactive) in the assay on A549; > 100 µM (inactive) in the assay on NCI/ADR-RES; > 100 µM (inactive) in the assay with COLO 205; > 100 µM (inactive) in the assay with MCF7. Besides, the GI50 was > 100 µM (inactive) with HL-60; > 100 µM (inactive) in the assay with M14; > 100 µM (inactive) in the assay on A498; above 100 µM in the assay on HCT-15; > 100 µM (inactive) with MDA-N; > 100 µM (inactive) in the assay on Malme-3M. In addition, the GI50 with IGROV-1, with RPMI-8226, with UO-31, in the assay on KM12, in the assay with SK-MEL-5 and in the assay on HCC 2998 was > 100 µM (inactive) throughout.
With `O=[N+]([O-])c1cccc(/N=C2\c3ccccc3CN2c2cccc([N+](=O)[O-])c2)c1`, the GI50 is > 100 µM (inactive) in the assay on MDA-MB-231; > 100 µM (inactive) in the assay with SF-295; > 100 µM (inactive) in the assay on A549; > 100 µM (inactive) in the assay on COLO 205; 33.7 µM (inactive) in the assay with MCF7; > 100 µM (inactive) with M14. For the same compound, the GI50 is > 100 µM (inactive) in the assay on A498; above 100 µM with HCT-15; > 100 µM (inactive) in the assay with MDA-N; > 100 µM (inactive) with IGROV-1; > 100 µM (inactive) in the assay on RPMI-8226; 37.8 µM (inactive) with Hs-578T. Moreover, the GI50 with UO-31, in the assay with CAKI-1, in the assay on KM12, in the assay on SK-MEL-5 and in the assay on HCC 2998 was > 100 µM (inactive) throughout.
For the compound `CCOc1ccc(NC(=O)CC2Sc3ccccc3NC2=O)cc1` (centres undefined), the GI50 in the assay on SF-295 is > 100 µM (inactive); with A549 it was > 100 µM (inactive); with COLO 205, 41.1 µM (inactive); in the assay on HL-60 it was > 100 µM (inactive); in the assay with M14, > 100 µM (inactive); in the assay with A498, > 100 µM (inactive). The GI50 with HCT-15 is 56.8 µM; with Malme-3M it was 97.5 µM (inactive); in the assay on IGROV-1, > 100 µM (inactive); with RPMI-8226 it was 65.5 µM (inactive); in the assay with UO-31 it was 47.2 µM (inactive); with CAKI-1, 89.9 µM (inactive). In addition, the GI50 with KM12 is 28.3 µM (inactive); in the assay on SK-MEL-5 it was > 100 µM (inactive); with HCC 2998, 38.2 µM (inactive).
For `COC(=O)CCC(=O)NC1c2cccc3cccc(c23)Cn2c(=O)n(C)c(=O)n21` (centres undefined), the GI50 with MDA-MB-231, with SF-295, with A549, in the assay with NCI/ADR-RES, in the assay on COLO 205 and with MCF7 was > 100 µM (inactive) each time. For the same compound, the GI50 with M14 is > 100 µM (inactive); in the assay on HCT-15 it was above 100 µM; in the assay with Malme-3M, > 100 µM (inactive); in the assay with IGROV-1 it was > 100 µM (inactive); in the assay with RPMI-8226, > 100 µM (inactive); with Hs-578T, > 100 µM (inactive). Also, the GI50 in the assay on UO-31, in the assay with CAKI-1, with KM12, with SK-MEL-5 and in the assay on HCC 2998 was > 100 µM (inactive) each time.
For the compound `c1csc(-c2ccc(-c3cccc4nsnc34)s2)c1`, the GI50 was > 100 µM (inactive) with MDA-MB-231; 44.8 µM (inactive) in the assay with SF-295; 62.1 µM (inactive) with A549; > 100 µM (inactive) in the assay on NCI/ADR-RES; > 100 µM (inactive) with COLO 205; 14.7 µM (inactive) in the assay on MCF7. In addition, the GI50 in the assay on M14 is > 100 µM (inactive); with A498, > 100 µM (inactive); in the assay with HCT-15, above 100 µM; in the assay on MDA-N it was 40.4 µM (inactive); in the assay with Malme-3M, > 100 µM (inactive); in the assay on RPMI-8226, 85.3 µM (inactive). For the same compound, the GI50 in the assay with UO-31 was > 100 µM (inactive); in the assay on CAKI-1, 35.8 µM (inactive); with KM12 it was > 100 µM (inactive); in the assay on SK-MEL-5, > 100 µM (inactive); with HCC 2998 it was > 100 µM (inactive).
`CCOC(=O)Cn1c(=O)c2nc(SC)sc2n(-c2ccccc2)c1=O`: the GI50 in the assay with MDA-MB-231, in the assay on A549, with COLO 205, in the assay with MCF7, in the assay with HL-60 and in the assay with M14 was > 100 µM (inactive) in each case. Also, the GI50 in the assay on A498 is 22.4 µM (inactive); with HCT-15, above 100 µM; in the assay on MDA-N it was > 100 µM (inactive); with Malme-3M, > 100 µM (inactive); in the assay on IGROV-1, > 100 µM (inactive); with RPMI-8226, > 100 µM (inactive). In addition, the GI50 with Hs-578T, in the assay on UO-31, with KM12, in the assay with SK-MEL-5 and with HCC 2998 was > 100 µM (inactive) in each case.
Regarding `CSc1ccsc1-c1sc(-c2cc(SC)c(-c3sc(-c4cc(SC)c(-c5sccc5SC)s4)cc3SC)s2)cc1SC`, the GI50 in the assay on MDA-MB-231 is > 100 µM (inactive); in the assay with SF-295 it was > 100 µM (inactive); in the assay on A549, 90.8 µM (inactive); in the assay with NCI/ADR-RES it was 45.7 µM (inactive); in the assay on COLO 205, 33.4 µM (inactive); with MCF7, 57.1 µM (inactive). For the same compound, the GI50 is 0.356 µM (active) in the assay on HL-60; > 100 µM (inactive) with M14; > 100 µM (inactive) in the assay with A498; above 100 µM in the assay on HCT-15; 29.4 µM (inactive) with Malme-3M; > 100 µM (inactive) with IGROV-1. The GI50 in the assay on RPMI-8226 is 3.44 µM (inactive); in the assay on Hs-578T, > 100 µM (inactive); with CAKI-1 it was 17.2 µM (inactive); in the assay with KM12, 65.2 µM (inactive); in the assay on SK-MEL-5, > 100 µM (inactive); in the assay with HCC 2998, > 100 µM (inactive).
Consider `O=c1[nH]n(CCc2ccccc2CCl)c2ccc([N+](=O)[O-])cc12`, for which the GI50 with MDA-MB-231 was 76.2 µM (inactive); in the assay with SF-295 it was 52.5 µM (inactive); in the assay on A549 it was 99.1 µM (inactive); in the assay on NCI/ADR-RES it was 31.8 µM (inactive); with COLO 205, > 100 µM (inactive); in the assay with MCF7, 48.5 µM (inactive). Besides, the GI50 with HL-60 was 29.4 µM (inactive); in the assay on M14, 58.1 µM (inactive); in the assay with A498 it was 91 µM (inactive); in the assay with HCT-15, above 100 µM; with Malme-3M, > 100 µM (inactive); with IGROV-1, 83.9 µM (inactive). Moreover, the GI50 in the assay on RPMI-8226 was > 100 µM (inactive); in the assay with Hs-578T it was 54.3 µM (inactive); in the assay on UO-31 it was 25 µM (inactive); in the assay on CAKI-1 it was 91 µM (inactive); in the assay with KM12, 83.8 µM (inactive); in the assay on SK-MEL-5 it was 29.7 µM (inactive). In addition, the GI50 in the assay on HCC 2998 was > 100 µM (inactive).
Regarding `COc1ccc2oc(=O)c(-c3csc(-c4ccccc4)n3)cc2c1`, the GI50 with MDA-MB-231 is 43.4 µM (inactive); with SF-295, 22.8 µM (inactive); in the assay on A549, 64.7 µM (inactive); with COLO 205, > 100 µM (inactive); in the assay on MCF7, 94.6 µM (inactive); in the assay on HL-60, > 100 µM (inactive). The GI50 is > 100 µM (inactive) in the assay with M14; above 100 µM in the assay with HCT-15; > 100 µM (inactive) in the assay with MDA-N; 32.6 µM (inactive) in the assay with IGROV-1; 87.3 µM (inactive) with RPMI-8226; 37.8 µM (inactive) in the assay with Hs-578T. Besides, the GI50 is 24 µM (inactive) in the assay on UO-31; > 100 µM (inactive) in the assay with CAKI-1; > 100 µM (inactive) in the assay with KM12; 45.2 µM (inactive) with SK-MEL-5; 95.7 µM (inactive) in the assay on HCC 2998.
Turning to `O=c1[nH]nc(Cc2ccccc2)n1/N=C/c1ccco1`, the GI50 in the assay on MDA-MB-231 was > 100 µM (inactive); in the assay with SF-295, > 100 µM (inactive); with A549, > 100 µM (inactive); in the assay with NCI/ADR-RES, > 100 µM (inactive); in the assay with COLO 205 it was > 100 µM (inactive); in the assay on MCF7 it was 48.1 µM (inactive). The GI50 with M14 was > 100 µM (inactive); in the assay on A498, 45.9 µM (inactive); in the assay with HCT-15, above 100 µM; in the assay with Malme-3M it was > 100 µM (inactive); in the assay with RPMI-8226, > 100 µM (inactive); with Hs-578T it was 10 µM (inactive). Moreover, the GI50 with UO-31 was > 100 µM (inactive); with CAKI-1, > 100 µM (inactive); in the assay on KM12, 77.1 µM (inactive); in the assay on HCC 2998, > 100 µM (inactive).
